Consider two molecules from article PMC5783306 (Nature, 2017).

For orientation: EC50 means the concentration giving half of the maximal effect. A high value points to a need for much substance. Usually stoichiometry N stands for a count of units in the complex or per binding partner.

One series addresses T1, TAX-4 (Caenorhabditis elegans, UniProt Q03611).
T1 sequence (Q03611 1-733): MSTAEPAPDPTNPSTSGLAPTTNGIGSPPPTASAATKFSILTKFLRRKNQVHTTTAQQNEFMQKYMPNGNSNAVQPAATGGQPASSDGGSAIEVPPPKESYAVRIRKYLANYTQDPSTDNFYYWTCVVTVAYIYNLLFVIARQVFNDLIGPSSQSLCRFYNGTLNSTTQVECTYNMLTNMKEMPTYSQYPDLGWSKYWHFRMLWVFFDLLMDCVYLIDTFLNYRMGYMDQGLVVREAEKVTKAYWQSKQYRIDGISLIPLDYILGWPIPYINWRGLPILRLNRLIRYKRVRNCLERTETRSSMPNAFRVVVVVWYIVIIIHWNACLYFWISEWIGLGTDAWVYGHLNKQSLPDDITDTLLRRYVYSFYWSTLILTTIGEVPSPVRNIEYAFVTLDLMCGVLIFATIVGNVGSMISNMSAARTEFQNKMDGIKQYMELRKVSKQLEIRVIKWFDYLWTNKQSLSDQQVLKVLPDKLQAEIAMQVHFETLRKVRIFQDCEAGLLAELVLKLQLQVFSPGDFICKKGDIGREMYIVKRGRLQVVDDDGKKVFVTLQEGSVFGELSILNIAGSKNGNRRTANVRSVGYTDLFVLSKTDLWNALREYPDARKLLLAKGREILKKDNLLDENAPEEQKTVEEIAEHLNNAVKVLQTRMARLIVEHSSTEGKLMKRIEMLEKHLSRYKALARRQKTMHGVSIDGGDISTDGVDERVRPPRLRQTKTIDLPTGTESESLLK
As to the kind of experiment: cryo-EM structure at […] Å of cGMP-bound channel. It is filed as cell-based.

The series “cryo-EM structure” concerns the molecule itself. Kind of series: cryo-EM structure.

`Nc1nc2c(ncn2[C@@H]2O[C@@H]3COP(=O)(O)O[C@H]3[C@H]2O)c(=O)[nH]1` [cGMP] returned an EC50 on TAX-4 of 160 nM.

B1: TAX-4 (cyclic nucleotide-gated channel CNGA subunit from C. elegans), cGMP-bound (natural protein, UniProt Q03611 1-733, looked up)
chain: T1 sequence (Q03611 1-733)
As to B1, in “cryo-EM structure”, the “stoichiometry N” value came out at 4.
